In patent US8658698B2, “Insecticidal compounds” (Syngenta Crop Protection, LLC, priority 2008, dated 2014):

Legend:
Type in all cases: in vivo
[1] = system: Myzus persicae (Green Peach Aphid); assay: Myzus persicae sucrose solution feeding test; conditions: same protocol, 12.5 ppm, 6 days
Experimental: (§1) This Example illustrates the pesticidal/insecticidal properties of compounds of formula (I). The tests were performed as follows:
(§2) Cotton leaf discs were placed on agar in a 24-well microtiter plate and sprayed with test solutions at an application rate of 200 ppm. After drying, the leaf discs were infested with 5 L1 larvae. The samples were checked for mortality, feeding behavior, and growth regulation 3 days after treatment (DAT). The following compounds gave at least 80% control of Spodoptera littoralis: A2, A6, A8, A9, A10, A11, A13, A15, A19, A20, A22, A25, A27, A29, A31, A33, A35, A41, A50, A55, A60, A65, A73, A88, A92, and A94. Heliothis virescens (Tobacco Budworm): Eggs (0-24 h old) were placed in 24-well microtiter plate on artificial diet and treated with test solutions at an application rate of 200 ppm (concentration in well 18 ppm) by pipetting. After an incubation period of 4 days, samples were checked for egg mortality, larval mortality and growth regulation. The following compounds gave at least 80% control of Heliothis virescens: A2, A3, A4, A5, A6, A7, A9, A10, A11, A13, A15, A19, A20, A22, A25, A26, A27, A28, A29, A31, A32, A33, A35, A38, A40, A41, A43, A46, A55, A59, A60, A65, A69, A70, A71, A73, A74, A75, A77, A79, A80, A82, A86, A88, A89, A90, A92, A94, A96, A98, and A100. Plutella xylostella (Diamond Back Moth): A 24-well microtiter plate (MTP) with artificial diet was treated with test solutions at an application rate of 200 ppm (concentration in well 18 ppm) by pipetting. After drying, the MTP's were infested with L2 larvae (7-12 per well). After an incubation period of 6 days, samples were checked for larval mortality and growth regulation. The following compounds gave at least 80% control of Plutella xylostella: A3, A4, A5, A6, A7, A8, A10, A15, A16, A18, A19, A20, A22, A25, A26, A27, A28, A29, A31, A32, A33, A35, A38, A40, A55, A69, A71, A73, A74, A75, A76, A77, A78, A80, A82, A86, A87, A88, A89, A92, A94, A96, A97, A98, and A99. Diabrotica balteata (Corn Root Worm): A 24-well microtiter plate (MTP) with artificial diet was treated with test solutions at an application rate of 200 ppm (concentration in well 18 ppm) by pipetting. After drying, the MTP's were infested with larvae (L2) (6-10 per well). After an incubation period of 5 days, samples were checked for larval mortality, and growth regulation. The following compounds gave at least 80% control of Diabrotica balteata: A5, A6, A7, A14, A15, A18, A24, A35, A53, A55, A70, A71, A75, A79, A84, A85, A88, A92, A93, A95, A96, A97, A98, A99, A100, A101, A102, A103, and A104. Myzus persicae (Green Peach Aphid): Each well of a 24-well microtiter plate is filled with 0.6 ml 30% sucrose solution, containing 12.5 ppm of the test compounds. The wells are covered with streched parafilm and infested with a mixed population of Myzus persicae. After an incubation period of 6 days, samples are checked for mortality (feeding activity). The following compounds gave at least 80% control of Myzus persicae: A4, A6, A10, A11, A15, A19, A20, A24, A27, A29, A33, A34, A36, A37, A39, A40, A41, A42, A43, A44, A45, A46, A47, A48, A49, A55, A60, and A82. Tetranychus urticae (Two-Spotted Spider Mite): Bean leaf discs on agar in 24-well microtiter plates were sprayed with test solutions at an application rate of 200 ppm. After drying, the leaf discs are infested with mite populations of mixed ages. 8 days later, discs are checked for egg mortality, larval mortality, and adult mortality. The following compounds gave at least 80% control of Tetranychus urticae: A6, A11, A15, A19, A20, A22, A26, A35, A58, and A64.

[2] = system: Diabrotica balteata (Corn Root Worm); assay: Diabrotica balteata larvae test on artificial diet; conditions: same protocol, 200 ppm (18 ppm in well), 5 days
Experimental: as §1, §2

[3] = system: Plutella xylostella (Diamond Back Moth); assay: Plutella xylostella larvae test on artificial diet; conditions: same protocol, 200 ppm (18 ppm in well), 6 days
Experimental: as §1, §2

[4] = system: Spodoptera littoralis (Egyptian Cotton Leafworm); assay: Spodoptera littoralis cotton leaf disc spray test; conditions: same protocol, 200 ppm, 3 DAT
Experimental: as §1
Spodoptera littoralis (Egyptian Cotton Leafworm)
as §2

[5] = system: Heliothis virescens (Tobacco Budworm); assay: Heliothis virescens egg test on artificial diet; conditions: same protocol, 200 ppm (18 ppm in well), 4 days
Experimental: as §1, §2

[6] = system: Tetranychus urticae (Two-Spotted Spider Mite); assay: Tetranychus urticae bean leaf disc spray test; conditions: same protocol, 200 ppm, 8 days
Experimental: as §1, §2

Measured: effect on mortality, feeding behavior, or growth regulation

CCc1cc(C(F)(C(F)(F)F)C(F)(F)C(F)(F)F)cc(C)c1NC(=O)c1ccc(C(=O)Nc2cc(-c3ccccc3)[nH]n2)c(C)c1 (stereo not drawn) [A61]
no or little effect: all assays above

CCc1cc(C(F)(C(F)(F)F)C(F)(F)C(F)(F)F)cc(C)c1NC(=O)c1ccc(C(=O)Nc2nc3c(C)cccc3s2)c(C)c1 (stereo not drawn) [A62]
no or little effect: all assays above

CCc1cc(C(F)(C(F)(F)F)C(F)(F)C(F)(F)F)cc(C)c1NC(=O)c1ccc(C(=O)Nc2nnc(C)s2)c(C)c1 (stereo not drawn) [A63]
no or little effect: all assays above

CCc1cc(C(F)(C(F)(F)F)C(F)(F)C(F)(F)F)cc(C)c1NC(=O)c1ccc(C(=O)Nc2nc(-c3ccc(C)cc3)cs2)c(C)c1 (stereo not drawn) [A66]
no or little effect: all assays above

CCc1cc(C(F)(C(F)(F)F)C(F)(F)C(F)(F)F)cc(C)c1NC(=O)c1ccc(C(=O)NCCCN2CCCCC2)c(C)c1 (stereo not drawn) [A67]
no or little effect: all assays above

CCc1cc(C(F)(C(F)(F)F)C(F)(F)C(F)(F)F)cc(C)c1NC(=O)c1ccc(C(=O)NCc2cc(-c3ccc(Cl)cc3)no2)c(C)c1 (stereo not drawn) [A68]
no or little effect: all assays above
